In assay [1] the target is T1, KDM6A (UTX) (Homo sapiens, UniProt O15550).
T1 construct: purchased BPS Bioscience
Briefly: KDM cell-free assay (AlphaScreen, BPS Bioscience). In kind it is biochemical. The conditions noted are these: for IC50: Fig. 9A, read-out: IC50 (KDM6A inhibition dose response curve). A general note: Alpha assays give light when donor and acceptor beads are brought close together.

Assay [2] deals with MCF-7. Briefly: Cell viability assay (MTS), antiproliferative activity. The following applies: Homo sapiens, MCF7, 72 h. In kind it is cell-based. The procedure: (§1) To preliminarily profile the bioactivity of these compounds, we adopted a streamlined approach which involved screening against KDM6A at two concentrations and evaluating antiproliferative activity against three representative cell lines – MCF-7 (ER(+) BCa), MDA-MB-231 (TNBC BCa) and Vero (a non-transformed cell line as control).
(§2) The In vitro proliferation assay was performed as reported previously[15],[16]. Detailed description of the protocol used is included in the Supplementary Information.
(§3) Cell Viability Assay. All cell lines were purchased form ATCC (Manassas, VA), and they were routinely cultured in different media recommended by the supplier. MCF-7 cells were cultured in non-phenol red DMEM (Corning, Manassas, VA) fortified with 10% charcoal treated fetal bovine serum (FBS; Atlanta Biologicals, GA) and 0.2 mM glutamine (Corning, Manassas, VA), whereas MDA-MB-231, DU-145, and Vero were cultured in DMEM with 10% FBS. […] After 24 h incubation in 37 °C under 5% CO2, cells were treated with serially diluted ligands with final DMSO concentration of 1% and incubated for additional 72 h. MTS (CellTiter 96 Aqueous One Solution Cell Proliferation Assays, Promega, Madison, WI) was added to each well 2.5 h prior to recording the absorbance at 490 nm.

The test system of assay [3] is MDA-MB-231. The assay is described as above. In kind it is cell-based. The following applies: Homo sapiens, 72 h. The procedure: as §1, §2, §3
Assay [4] concerns VERO. The assay is described as above. In kind it is cell-based. The following applies: Chlorocebus sabaeus, 72 h. As to the method:
as §1, §2, §3

The subject of assay [5] is HP1-mediated heterochromatin gene repression in CiA:Oct4 embryonic stem cells. Briefly: HP1-recruitment assay dose curve (CiA:Oct4, with CIP-rapamycin), flow cytometry. In kind it is cell-based, mouse. The conditions noted are these: 48 h with CIP-rapamycin recruitment of HP1; for concentration reaching maximum inhibition of heterochromatin formation / gene repression: doses 250 nM–10 µM. An excerpt:
To elucidate the effect of DFP-based KDM inhibitors on chromatin dynamics, we profiled them in an intracellular assay which measures heterochromatin formation speed. The chromatin in vivo assay (CiA) leverages chemical induced proximity (CIP) to recruit heterochromatin protein 1 (HP1) to a modified Oct4 locus. This reporter system is composed of tandem arrays of Gal4 and zinc finger DNA binding domains in the promoter of one allele of Oct4, where the gene was replaced by a nuclear eGFP reporter. Protein fusions of Gal4-FKBP and FRB-HP1 allow for direct chemical recruitment of HP1 to the CiA:Oct4 reporter locus upon addition of the chemical inducer of proximity (CIP)-rapamycin. After CIP-rapamycin addition, HP1 is recruited to the reporter locus and brings histone methyltransferase enzymes to the chromatin reporter resulting in the repressive H3K9me3 mark being deposited (Fig. 10A). H3K9me3 deposition is the signature mark of heterochromatin and is coupled with gene silencing and loss of GFP expression (Fig. 10B)[33]. Others have shown that H3K4me3 marked nucleosomes impede H3K9 methyltransferase activity. Thus, we postulate that the active H3K4me3 mark must be removed by KDM enzymes as part of the transformation from euchromatin to heterochromatin. Inhibition of KDMs, specifically those targeting H3K4me3, would result in a decrease in H3K9me3 accumulation, which would be measured in our assay as an increase in GFP positive cells.
To determine the effect of DFP-based KDM inhibitors on HP1-mediated gene repression, we treated CiA:Oct4 embryonic stem (ES) cells with doses of representative compounds ranging from 10 µM–250 nM for 48 h with CIP-rapamycin recruitment of HP1 (Fig. 10C). […] The percentage of GFP(+) cells was determined by flow cytometry as indicated in representative histograms (Supplemental Fig. S8).
(§4) Day 0, CiA:Oct4 N118/163 cells were grown in ES media and seeded at a density of 10,000 cells per well in 100 μL media (100,000 cells mL^−1) on gelatin coated 96 well plates. Day 1, culture media was aspirated and replaced with 100 µL ES media containing +/− 6 nM rapamycin. 10 µM, 5 µM, 2.5 µM, 1 µM, 500 nM, and 250 nM concentrations of compound or DMSO were added using a TTP Labtech Mosquito HTS liquid handler. Days 2, fresh ES media +/− rapamycin and compound were added as in Day 1. Day 3, cells were washed with PBS and trypsinized using 0.25% trypsin-EDTA. Trypsin was quenched with serum. Cells were resuspended by pipetting in preparation for flow cytometry analysis.
(§5) Flow cytometry data was acquired using the Intellicyt iQue Screener and analyzed with FlowJo software.
The CiA:Oct4 recruitment system in mouse embryonic stem cells contains Gal4 and Zinc finger DNA binding arrays and a downstream nuclear eGFP gene in place of a single Oct4 allele as previously described.^30 The CiA:Oct4 N118/N163 cell line containing viral integrations of N118 and N163 plasmids (N118- nLV EF-1α-Gal-FKBPx1-HA-PGK-Blast, N163- nLV EF-1α-HP1α (CS)-Frbx2(Frb+FrbWobb)-V5-PGK-Puro) was used for inhibition of HP1-mediated heterochromatin studies. All plasmids are freely available on addgene.
(§6) HP1-Recruitment Assay Dose Curve. Day 0, CiA:Oct4 N118/163 cells were grown in ES media and seeded at a density of 10,000 cells per well in 100 µL media (100,000 cells mL^-1) on gelatin coated 96 well plates. Day 1, culture media was aspirated and replaced with 100 µL ES media containing +/- 6 nM rapamycin. 10 µM, 5 µM, 2.5 µM, 1 µM, 500 nM, and 250 nM concentrations of compound or DMSO were added using a TTP Labtech Mosquito HTS liquid handler. Days 2, fresh ES media +/- rapamycin and compound were added as in Day 1. Day 3, cells were washed with PBS and trypsinized using 0.25% trypsin-EDTA. Trypsin was quenched with serum. Cells were resuspended by pipetting in preparation for flow cytometry analysis.
Flow Cytometry and Analysis.
On the technique in general: In flow cytometry, cells or beads pass a laser one at a time.

Assay [6] relates to T47D cells. Kind of assay: Viability of T47D cells at three concentrations. In kind it is cell-based, human. The conditions noted are these: Fig. S9. As to the method: To determine the antitumor potential of the DFP-based KDM inhibitors, we investigated the efficacy of a representative example, 2j, in two murine xenograft models of BCa. The xenografts were established using two human BCa cell lines – T47D (ER(+)) and MDA-MB-231 (ER(−)). […] Because our in vitro study was conducted using MCF-7 as a model of ER(+) cell, we first tested the effect of 2j on the viability of T47D cells at three concentrations. […] The effect of 2j on T47D viability mirrored that of its effect on MCF-7, confirming preferential cytotoxicity of the DFP-based agents […]. Once we established that T47D cells are sensitive to 2j, xenografts of T47D and MDA-MB-231 were established in female athymic nude mice (8-week old) by injection of cells (1 × 10^7) into the mammary fat pad as described previously[37],[38]. After the tumor volume reached ~250 mm^3, mice were treated with 2j (25 mg/kg body weight) for 8 weeks. […] Relative to control, 2j caused approx. 81% (4426 vs 884 mm^3) and 70% (5116 vs 1536 mm^3) reduction in the growth of T47D and MDA-MBMB-231 tumors, respectively.

Assay [7] has as its system MDA-MB-231 tumors. Kind of assay: Mouse xenograft assay, MDA-MB-231 (ER(−)). In kind it is in vivo. The conditions noted are these: MDA-MB-231 xenograft.
Assay [8] has as its system Oct4 GFP expression in CiA:Oct4 embryonic stem cells. Briefly: CiA:Oct4 reporter dose response without HP1 recruitment (no CIP-rapamycin), flow cytometry. In kind it is cell-based, mouse. The following applies: 48 h without HP1 recruitment; for decrease in the percentage of GFP(+) cells: at 2.5 µM.
Description: Embryonic stem cells are sensitive to environmental stimuli which may trigger cell differentiation. During mammalian stem cell differentiation or exposure to toxic compounds, Oct4 is known to be repressed as cells lose reinforcement of the pluripotency transcriptional activation network[35],[36]. Therefore, the CiA:Oct4 reporter without CIP-recruitment of HP1 functions is a valid system to determine how much cell differentiation or toxicity is occurring by measuring the GFP expression levels. To elucidate the effect of DFP-based KDM inhibitors on Oct4 GFP expression in the absence of HP1 recruitment, we performed dose response studies without addition of CIP-rapamycin (Fig. 11A).
as §4, §5, §6
Flow Cytometry and Analysis. Flow cytometry data was acquired using the Intellicyt iQue Screener and analyzed with FlowJo software. Cell populations were gated based on forward and side scatter height. Single cell populations were gated using forward scatter area by forward scatter height. Autofluorescent cells were excluded and the remaining cells were gated into GFP (-) and GFP (+) populations based on DMSO control samples.

The mark [9] stands for this setting: Table 5, values calculated by linear regression.

Where only a bound is given, the exact number is not on record here.

T1 sequence (O15550 whole entry): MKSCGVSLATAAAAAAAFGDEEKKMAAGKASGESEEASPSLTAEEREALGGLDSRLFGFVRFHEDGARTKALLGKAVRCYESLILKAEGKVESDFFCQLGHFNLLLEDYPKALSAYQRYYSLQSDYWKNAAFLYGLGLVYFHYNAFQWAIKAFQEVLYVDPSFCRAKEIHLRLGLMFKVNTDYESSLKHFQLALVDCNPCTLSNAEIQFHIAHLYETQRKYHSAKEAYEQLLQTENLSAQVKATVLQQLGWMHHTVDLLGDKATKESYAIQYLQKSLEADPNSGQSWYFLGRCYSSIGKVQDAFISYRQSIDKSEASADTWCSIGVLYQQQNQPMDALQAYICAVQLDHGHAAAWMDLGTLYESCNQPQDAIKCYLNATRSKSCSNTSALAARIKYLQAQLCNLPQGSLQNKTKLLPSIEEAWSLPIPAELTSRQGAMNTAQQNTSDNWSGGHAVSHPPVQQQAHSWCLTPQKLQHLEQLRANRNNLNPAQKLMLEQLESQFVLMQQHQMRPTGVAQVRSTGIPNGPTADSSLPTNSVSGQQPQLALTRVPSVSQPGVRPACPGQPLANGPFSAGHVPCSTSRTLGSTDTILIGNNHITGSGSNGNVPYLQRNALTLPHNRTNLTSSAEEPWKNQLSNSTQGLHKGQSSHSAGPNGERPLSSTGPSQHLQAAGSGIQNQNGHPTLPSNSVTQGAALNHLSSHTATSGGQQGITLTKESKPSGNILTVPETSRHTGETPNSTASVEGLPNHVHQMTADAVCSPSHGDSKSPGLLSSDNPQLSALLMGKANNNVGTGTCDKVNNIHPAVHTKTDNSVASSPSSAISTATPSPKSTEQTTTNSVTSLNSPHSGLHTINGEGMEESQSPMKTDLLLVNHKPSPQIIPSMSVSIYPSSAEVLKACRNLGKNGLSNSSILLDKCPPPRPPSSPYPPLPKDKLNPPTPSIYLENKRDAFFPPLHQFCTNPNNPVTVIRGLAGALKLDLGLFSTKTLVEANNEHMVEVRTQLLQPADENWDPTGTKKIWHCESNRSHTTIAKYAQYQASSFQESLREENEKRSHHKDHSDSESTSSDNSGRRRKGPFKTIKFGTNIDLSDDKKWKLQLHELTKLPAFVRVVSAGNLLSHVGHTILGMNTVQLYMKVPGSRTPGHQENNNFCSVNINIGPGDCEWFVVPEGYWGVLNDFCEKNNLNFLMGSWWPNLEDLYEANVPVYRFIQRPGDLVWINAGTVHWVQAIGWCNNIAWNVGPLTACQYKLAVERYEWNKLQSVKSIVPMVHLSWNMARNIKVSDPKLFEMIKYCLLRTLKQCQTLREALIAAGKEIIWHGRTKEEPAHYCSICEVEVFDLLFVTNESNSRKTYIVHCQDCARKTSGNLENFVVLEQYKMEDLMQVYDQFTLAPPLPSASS

The term inhibition denotes the drop in the measured response relative to a control, in per cent. A high value points to a response far below the control. The term IC50 denotes the concentration that inhibits the measured activity by half. Regarding `Cc1c(O)c(=O)ccn1CCn1cc(-c2ccccc2)nn1` [1a], testing at 1 µM in assay [1] (Table 2) gave an inhibition of 12%. Besides, the inhibition at 10 µM in assay [1] (Table 2) was found to be 96%. Also, the IC50 in assay [2] (Table 4) is more than 50 µM; in assay [3] (Table 4), more than 50 µM; in assay [4] (Table 4), more than 100 µM. Besides, in assay [5] (up to 10 µM), the “inhibition of heterochromatin formation” value is “did not inhibit heterochromatin formation”.
For the compound `COc1cccc(-c2cn(CCCCCn3ccc(=O)c(O)c3C)nn2)c1` [2j], the inhibition at 1 µM in assay [1] (Table 2) came to 8%. For the same compound, in assay [1] (Table 2), testing at 10 µM gave an inhibition of 100%. For the same compound, the IC50 in assay [1] is 3.2 µM; in assay [2] (setting [9]) it was 34.1 µM; in assay [3] (Table 5) it was 10.6 µM; in assay [4] (Table 5), more than 50 µM. Also, the “increase in the number of GFP positive cells” value in assay [5] amounted to 20%. The “growth of T47D cells” value in assay [6] is given as “dose-dependent reduction”. In addition, the “reduction in the growth of tumors relative to control” value in assay [7] (athymic nude mice, 25 mg/kg body weight for 8 weeks) is approximately 70%. The compound also yielded a tumor volume in assay [7] (25 mg/kg for 8 weeks, control 5116 mm^3) of 1536 mm^3.
On to `Cc1c(O)c(=O)ccn1CCCCCn1cc(-c2ccc(-c3ccncc3)cc2)nn1` [2t], for which 1 µM produced 8% inhibition in assay [1] (Table 2). In assay [1] (Table 2), this compound came in with an inhibition at 10 µM of 99%. Also, the IC50 is 37.6 µM in assay [2] (setting [9]), 3.6 µM in assay [3] (Table 5) and 29.2 µM in assay [4] (Table 5). The “concentration reaching maximum inhibition of heterochromatin formation / gene repression” value in assay [5] is on record as 10 µM. For the same compound, the “decrease in percentage GFP(+) cells” value in assay [8] (only at the 10 µM dose) is on record as ~ 20%.
`Cc1c(O)c(=O)ccn1CCCCCCn1cc(-c2ccc(-c3ccccc3)cc2)nn1` [2v] displayed an inhibition at 1 µM in assay [1] (Table 2) of 12%. The compound also yielded an inhibition at 10 µM in assay [1] (Table 2) of 49%. The IC50 in assay [2] (Table 5) is more than 50 µM; in assay [3] (Table 5), 2.5 µM; in assay [4] (Table 5) it was 4.9 µM. Also, the “concentration reaching maximum inhibition of heterochromatin formation / gene repression” value in assay [5] is given as 1 µM. Further, the “decrease in the percentage of GFP(+) cells” value (shortened to “decrease in the percentage”) in assay [8] is listed as ~ 30%.
For the compound `COc1ccc2cc(-c3cn(CCCCCCn4ccc(=O)c(O)c4C)nn3)ccc2c1` [2w], testing at 1 µM in assay [1] (Table 2) gave an inhibition of 16%. Moreover, the inhibition at 10 µM in assay [1] (Table 2) came to 57%. The IC50 in assay [2] (Table 5) was more than 50 µM; in assay [3] (Table 5), 1.2 µM; in assay [4] (Table 5), 3.9 µM. Moreover, the “concentration reaching maximum inhibition of heterochromatin formation / gene repression” value in assay [5] stood at 1 µM. The “decrease in the percentage” value in assay [8] is ~ 30%.
Take `Cc1c(O)c(=O)ccn1C1CCC(CC2CCC(n3ccc(=O)c(O)c3C)CC2)CC1` (stereo not drawn) [3g]: at 1 µM the inhibition in assay [1] (Table 3) was 9%. Further, 10 µM produced 100% inhibition in assay [1] (Table 3). The IC50 in assay [1] is 1.7 µM; in assay [2] (Table 6, values calculated by linear regression), 31.1 µM; in assay [3] (Table 6), 3.5 µM; in assay [4] (Table 6) it was more than 50 µM. Further, the “concentration reaching maximum inhibition of heterochromatin formation / gene repression” value in assay [5] stood at 2.5 µM. In assay [8], the “decrease in the percentage” value is recorded as ~ 30%.

The values above are taken from publication PMC6423038, “Deferiprone: Pan-selective Histone Lysine Demethylase Inhibition Activity and Structure Activity Relationship Study” (Scientific Reports, 2019).
